Measured values from patent US20060089335A1, “Compositions and methods for enhancing cognitive function and synaptic plasticity” (priority 2003, published 2006).
Where “and” joins values, the source holds several entries; their conditions need not be identical. Equal entries are not always repeated. Entries after “also recorded” stand apart in the source; their conditions may differ. Peptide text beside a SMILES is read from it.

What was measured:
[1] = target: T1, GABAB receptor (Rattus norvegicus, UniProt O88871+Q9Z0U4); conditions: rat neocortical slices; cited from earlier work
T1 construct: GABAB receptor-mediated hyperpolarizing responses to baclofen in rat neocortical slices (Kerr, 2003); host or cells: rat neocortical slices (tissue, endogenous receptor)
T1 sequence (O88871 41-940): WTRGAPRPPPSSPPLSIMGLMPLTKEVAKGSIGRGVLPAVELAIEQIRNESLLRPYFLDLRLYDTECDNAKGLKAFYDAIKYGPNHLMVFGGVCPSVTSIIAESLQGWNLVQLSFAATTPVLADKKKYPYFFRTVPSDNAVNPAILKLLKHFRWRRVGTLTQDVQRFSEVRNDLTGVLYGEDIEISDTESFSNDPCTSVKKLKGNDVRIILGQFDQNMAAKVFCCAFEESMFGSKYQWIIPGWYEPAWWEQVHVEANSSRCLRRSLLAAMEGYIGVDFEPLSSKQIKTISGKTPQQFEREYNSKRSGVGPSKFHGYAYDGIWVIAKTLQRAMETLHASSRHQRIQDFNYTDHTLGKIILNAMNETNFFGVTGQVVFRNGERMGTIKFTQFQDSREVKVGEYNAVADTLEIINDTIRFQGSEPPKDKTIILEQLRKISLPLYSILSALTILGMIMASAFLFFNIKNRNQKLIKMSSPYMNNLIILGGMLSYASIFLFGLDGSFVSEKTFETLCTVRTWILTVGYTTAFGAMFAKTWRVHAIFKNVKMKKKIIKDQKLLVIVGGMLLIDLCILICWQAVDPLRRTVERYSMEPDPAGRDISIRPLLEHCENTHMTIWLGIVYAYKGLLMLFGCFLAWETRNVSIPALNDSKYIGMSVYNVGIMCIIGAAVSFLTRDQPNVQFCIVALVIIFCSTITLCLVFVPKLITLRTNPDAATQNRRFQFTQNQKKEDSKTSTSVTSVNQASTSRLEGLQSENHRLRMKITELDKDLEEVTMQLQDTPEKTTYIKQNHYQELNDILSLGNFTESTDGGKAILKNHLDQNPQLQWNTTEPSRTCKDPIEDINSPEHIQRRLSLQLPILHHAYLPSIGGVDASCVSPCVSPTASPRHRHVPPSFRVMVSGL
T1 sequence (Q9Z0U4 17-960): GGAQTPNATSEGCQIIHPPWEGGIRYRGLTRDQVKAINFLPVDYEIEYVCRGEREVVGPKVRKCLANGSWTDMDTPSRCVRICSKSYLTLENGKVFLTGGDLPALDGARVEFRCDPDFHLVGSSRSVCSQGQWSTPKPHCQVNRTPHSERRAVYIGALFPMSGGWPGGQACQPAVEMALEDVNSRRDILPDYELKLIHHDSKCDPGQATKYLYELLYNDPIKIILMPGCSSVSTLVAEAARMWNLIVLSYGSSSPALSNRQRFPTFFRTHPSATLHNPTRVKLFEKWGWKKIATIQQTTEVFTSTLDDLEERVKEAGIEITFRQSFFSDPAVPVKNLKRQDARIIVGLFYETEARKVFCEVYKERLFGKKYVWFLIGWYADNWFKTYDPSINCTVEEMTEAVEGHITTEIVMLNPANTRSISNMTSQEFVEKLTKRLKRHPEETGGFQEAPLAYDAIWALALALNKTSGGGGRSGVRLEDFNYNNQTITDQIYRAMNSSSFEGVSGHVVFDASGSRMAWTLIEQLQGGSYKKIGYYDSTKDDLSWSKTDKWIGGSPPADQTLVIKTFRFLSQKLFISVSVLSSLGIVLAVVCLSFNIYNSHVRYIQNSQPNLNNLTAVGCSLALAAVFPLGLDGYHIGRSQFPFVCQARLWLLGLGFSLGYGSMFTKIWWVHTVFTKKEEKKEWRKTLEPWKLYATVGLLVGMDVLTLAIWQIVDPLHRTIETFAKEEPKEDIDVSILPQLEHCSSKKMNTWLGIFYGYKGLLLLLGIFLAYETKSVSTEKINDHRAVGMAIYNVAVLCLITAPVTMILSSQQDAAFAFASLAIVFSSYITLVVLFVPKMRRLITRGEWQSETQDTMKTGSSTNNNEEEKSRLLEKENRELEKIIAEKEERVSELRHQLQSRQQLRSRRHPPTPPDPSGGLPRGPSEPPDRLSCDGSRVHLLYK

[2] = test system: presynaptic terminals of cultured hippocampal neurons; assay: TBS-induced presynaptic plasticity measured by FM 1-43 dye uptake in hippocampal cultures; type: cell-based, rat; conditions: for TBS-induced potentiation / plasticity after prolonged treatment: 48 hours of incubation
[3] = test system: cultured hippocampal neurons; assay: control recordings of membrane potential, synaptic inputs and firing; type: cell-based, rat; conditions: treatments of FIG. 5D
Description: (§1) Electrophysiology. Dual whole cell perforated patch clamp recordings were made on two interconnected cultured hippocampal pyramidal neurons. Perforated patch pipettes were front-filled with a solution containing (in mM): CsOH, 127; D-gluconic acid, 127; CsCl, 4; HEPES, 10; NaCl, 8; EGTA, 0.4; pH was adjusted to 7.25 with CsOH, and then back-filled with the same solution containing […] amphotericin B (Sigma, St. Louis, Mo.). Extracellular solution contained (in mM): NaCl, 145; KCl, 3; glucose, 15; HEPES, 10; MgCl2, 0.8-1.2; CaCl2, 1.2; 0.005 glycine (Sigma), 0.05 picrotoxin (Sigma); pH adjusted to 7.4 with NaOH. MgCl2 concentration was matched to its concentration in culture medium. In experiments where effects of drugs on neuronal activity were quantified (FIG. 4D), recordings were done in culture medium (with HEPES replacing bicarbonate/CO2 to maintain pH). All experiments were performed at room temperature. For assaying synaptic connectivity, each neuron was stimulated by 1 ms step depolarization from −70 to +30 mV in voltage-clamp mode. Only neurons with monosynaptic connections were used. […] Recordings with access resistance>20 MΩ or that varied substantially were rejected from analysis.

[4] = target: NMDA receptors (NR2B-containing) (Rattus norvegicus, UniProt P35439+Q00960); assay: evoked NMDA currents ([…]), double-perforated patch; type: cell-based
Sequence of NMDA receptors (NR2B-containing) (Q00960 27-1482, other chains not shown): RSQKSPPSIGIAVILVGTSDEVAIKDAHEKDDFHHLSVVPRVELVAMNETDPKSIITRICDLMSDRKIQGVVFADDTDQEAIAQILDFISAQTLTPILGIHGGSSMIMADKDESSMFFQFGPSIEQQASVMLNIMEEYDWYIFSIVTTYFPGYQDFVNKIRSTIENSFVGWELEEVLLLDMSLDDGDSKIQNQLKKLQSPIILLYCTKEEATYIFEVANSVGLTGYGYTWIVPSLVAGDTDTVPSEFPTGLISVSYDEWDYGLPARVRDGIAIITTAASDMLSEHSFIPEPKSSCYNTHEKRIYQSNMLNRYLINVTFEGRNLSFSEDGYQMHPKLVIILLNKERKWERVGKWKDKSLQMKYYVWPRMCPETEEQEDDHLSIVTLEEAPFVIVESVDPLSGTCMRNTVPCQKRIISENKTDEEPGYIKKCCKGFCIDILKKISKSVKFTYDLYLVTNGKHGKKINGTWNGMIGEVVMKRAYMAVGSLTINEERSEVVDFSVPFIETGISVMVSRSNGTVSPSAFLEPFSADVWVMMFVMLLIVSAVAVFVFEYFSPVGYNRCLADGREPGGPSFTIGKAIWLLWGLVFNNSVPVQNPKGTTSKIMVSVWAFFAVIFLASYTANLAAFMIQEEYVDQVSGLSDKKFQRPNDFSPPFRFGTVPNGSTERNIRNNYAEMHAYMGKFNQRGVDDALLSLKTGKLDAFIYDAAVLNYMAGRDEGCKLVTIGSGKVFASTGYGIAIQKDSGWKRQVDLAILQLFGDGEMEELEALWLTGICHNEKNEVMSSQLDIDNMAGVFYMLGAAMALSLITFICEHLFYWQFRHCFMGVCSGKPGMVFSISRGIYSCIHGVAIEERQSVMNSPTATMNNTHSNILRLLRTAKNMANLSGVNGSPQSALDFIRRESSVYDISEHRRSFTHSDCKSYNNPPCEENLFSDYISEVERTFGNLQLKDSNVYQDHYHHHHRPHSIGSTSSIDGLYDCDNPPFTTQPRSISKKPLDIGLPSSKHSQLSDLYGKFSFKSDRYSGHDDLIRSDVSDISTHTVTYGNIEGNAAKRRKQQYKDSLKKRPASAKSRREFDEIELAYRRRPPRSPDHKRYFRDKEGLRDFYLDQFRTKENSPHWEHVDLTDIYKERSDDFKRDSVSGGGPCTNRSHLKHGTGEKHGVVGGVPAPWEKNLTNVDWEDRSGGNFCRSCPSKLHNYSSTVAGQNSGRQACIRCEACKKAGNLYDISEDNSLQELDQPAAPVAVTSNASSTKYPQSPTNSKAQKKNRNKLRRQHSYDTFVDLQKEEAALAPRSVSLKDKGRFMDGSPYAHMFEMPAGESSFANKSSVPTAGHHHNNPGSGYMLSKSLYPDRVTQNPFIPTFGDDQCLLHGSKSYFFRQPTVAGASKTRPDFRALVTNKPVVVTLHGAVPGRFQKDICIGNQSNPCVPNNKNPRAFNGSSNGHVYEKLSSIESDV
Description: as §1
We hypothesized that one target may be the number and properties of NMDA receptors at individual synapses.

[5] = test system: postsynaptic locations of cultured hippocampal neurons; assay: postsynaptic evoked current response to iontophoretic glutamate (AMPA-R insertion); type: cell-based, rat; conditions: Mg^++-treated culture; reversed by washout
Source text: These were generally as described in the preceding examples. Glutamatergic iontophoresis was perfomed as described [Murnick 2000].
Since we wished to correlate the above pre-synaptic findings to the plasticity of single or small clusters of postsynaptic locations, this ruled out traditional double-patch plasticity experiments in which heterogeneous populations of connections are studied. Such studies also usually confound pre-synaptic and postsynaptic effects. For this purpose, we developed a technique of high-temporal and spatial resolution glutamatergic iontophoresis that allows us to stimulate single or small clusters of postsynaptic locations (resolution ˜2 μm, 1 ms; [Murnick 2000]).
To determine whether a decrease in overall activity of a neural network leads to increased plasticity (i.e., an increase in synaptic strength in response to a pattern of stimulation) of postsynaptic locations, we assessed the effect of treatment with Mg^++ on the ability of postsynaptic locations to respond to glutamate. As described above, Mg^++ blocks the NMDA receptor channel at resting membrane potential, so Mg^++ treatment reduces the overall activity level of the neural network. As also described above, increases in postsynaptic intracellular Ca^++ stimulated by activation of NMDA receptors leads to recruitment of AMPA receptors and their insertion into the postsynaptic membrane. […]

[6] = test system: excitatory and inhibitory terminals; conditions: short treatment (2-24 hr)
[7] = test system: structural synaptic terminals; assay: FM dye uptake of structural synaptic terminals, 30 AP protocol; type: cell-based, rat; conditions: 100 ng/ml BDNF
Description: FM 1-43 Loading and Destaining. Functional presynaptic boutons were stained with 10 μM FM 1-43 (synaptogreen, Biotium) by eliciting 30 APs at 0.5-1 Hz. This loading protocol was chosen to avoid short-term plasticity and “re-use” of vesicles through “kiss-run” mode of exocytosis (Aravanis et al., 2003). The neurons were stimulated to fire action potentials by passing 1 ms 50 mA current through platinum electrodes placed at a distance of 7 mm from both sides of the chamber. To ensure reliable action potential initiation, the current amplitude was chosen to be 50% above the threshold for action potential generation, as confirmed by whole-cell patch clamp recording. To prevent recurrent activity, excitatory postsynaptic responses were blocked completely by the addition of DL-AP5 (50 μM, Sigma) and NBQX (10 μM, Sigma) during FM loading and unloading procedures. […]
To further determine the number of these very low Pr terminals and their proportion to the whole population of functional synaptic terminals, we compared the co-localization of FM puncta obtained for the 30 AP loading with puncta obtained using fluorescent antibodies against specific presynaptic proteins. […] Twenty percent more functional synapses were detected by this procedure, also consistent with a previous report (Murthy et al., 1997). […]

Molecule: CC(C)C[C@H](NC(=O)[C@@H](N)Cc1ccccc1)C(=O)O [L-Phe-Leu] (H-Phe-Leu-OH)
- potency as potentiator of GABAB receptor-mediated hyperpolarizing responses to baclofen [1]: Most potent

Molecule: CN1C(=O)CN=C(c2ccccc2F)c2cc([N+](=O)[O-])ccc21 [flunitrazepam, reference compound]
- TBS-induced potentiation / plasticity after prolonged treatment [2]: no significant TBS-induced potentiation; also recorded: lose plasticity

Molecule: N[C@@H](Cc1ccc(O)cc1)C(=O)O [L-Tyr]
- potency as potentiator of GABAB receptor-mediated hyperpolarizing responses to baclofen [1]: less potent

Molecule: [Zn+2] [Zn^++]
- change in average firing rates of neurons within cultured neural networks [3]: none of these treatments induces a significant change
- plasticity of presynaptic terminals after partial block of Ca flux ([2]; 0.4 mM Mg^++ added or 5 mM Zn^++ two weeks, 10 mM nimodipine 2 days): significant increases of plasticity
- optimal concentration for plasticity (maximal potentiability) ([2]; 2 weeks treatment): 2 mM
- increase of synaptic strength at optimum concentration ([2]; FIGS. 6H-6J): up to approximately five-fold

Molecule: CC(C(O)c1ccc(O)cc1)N1CCC(Cc2ccccc2)CC1 (stereo not drawn) [ifenprodil]
- reduction of TBS-induced presynaptic potentiation ([2]; 1 μM ifenprodil, 1.2 mM Mg^2+ cultures): 50% and 48±7%
- reduction of current [4]: 53%
- reduction of total charge transfer [4]: 85% and 45%
- reduction of total charge transfer of EPSCNMDA [4]: 80% and 45% and 45±2%

Molecule: CC(C)C[C@H](N)C(=O)O [L-Leu]
- potency as potentiator of GABAB receptor-mediated hyperpolarizing responses to baclofen [1]: Most potent

Molecule: N[C@@H](Cc1ccccc1)C(=O)O [L-Phe]
- potency as potentiator of GABAB receptor-mediated hyperpolarizing responses to baclofen [1]: Most potent

Molecule: D-AP5 [reference compound]
- theta-burst-induced changes of Pr (F2/F1, N2/N1, S2/S1) in presence of NMDAR blocker [2]: No detectable changes of Pr
- effect of NMDA antagonist on the increase in postsynaptic current [5]: blocked it

Molecule: NS(=O)(=O)c1cccc2c1c([N+](=O)[O-])cc1nc(O)c(O)nc12 [NBQX, reference compound]
- TBS-induced potentiation / plasticity after prolonged treatment [2]: no significant TBS-induced potentiation; also recorded: lose plasticity
- change of synaptic density [6]: No short treatment (2-24 hr, baclofen, nimodepine, NBQX, and TTX) produced a significant change of synaptic density

Molecule: N[C@@H](CO)C(=O)O [L-Ser]
- potency as potentiator of GABAB receptor-mediated hyperpolarizing responses to baclofen [1]: less potent

Molecule: N[C@@H](Cc1ccccc1)C(=O)N[C@@H](Cc1ccccc1)C(=O)O [L-Phe-Phe] (H-Phe-Phe-OH)
- potency as potentiator of GABAB receptor-mediated hyperpolarizing responses to baclofen [1]: Most potent

Molecule: CSCC[C@H](N)C(=O)O [L-Met]
- potency as potentiator of GABAB receptor-mediated hyperpolarizing responses to baclofen [1]: less potent

Molecule: N=C(N)NCCC[C@H](N)C(=O)O [L-Arg]
- potency as potentiator of GABAB receptor-mediated hyperpolarizing responses to baclofen [1]: less potent

Molecule: C[C@@H](O)[C@H](N)C(=O)O [L-Thr]
- potency as potentiator of GABAB receptor-mediated hyperpolarizing responses to baclofen [1]: less potent

Molecule: N[C@@H](CSSC[C@H](N)C(=O)O)C(=O)O [L-Cystine]
- potency as potentiator of GABAB receptor-mediated hyperpolarizing responses to baclofen [1]: less potent

Molecule: CC(C)[C@H](N)C(=O)O [L-Val]
- potency as potentiator of GABAB receptor-mediated hyperpolarizing responses to baclofen [1]: less potent

Molecule: N[C@@H](CS)C(=O)O [L-Cys]
- potency as potentiator of GABAB receptor-mediated hyperpolarizing responses to baclofen [1]: less potent

Molecule: L-Ile
- potency as potentiator of GABAB receptor-mediated hyperpolarizing responses to baclofen [1]: Most potent

B1: BDNF: neurotrophin known to increase the Pr of synaptic terminals (protein, UniProt P23560 19-247, looked up)
Neurotrophic factor BDNF …: APMKEANIRGQGGLAYPGVRTHGTLESVNGPKAGSRGLTSLADTFEHVIEELLDEDQKVRPNEENNKDADLYTSRVMLSSQVPLEPPLLFLLEEYKNYLDAANMSMRVRRHSDPARRGELSVCDSISEWVTAADKKTAVDMSGGTVTVLEKVPVSKGQLKQYFYETKCNPMGYTKEGCRGIDKRHWNSQCRTTQSYVRALTMDSKKRIGWRFIRIDTSCVCTLTIKRGR
- FM dye uptake by structural synaptic terminals [7]: all structural synaptic terminals became capable of taking up FM dye
